{
  "source": "patent US20240109937A1",
  "about": "“BINDING PEPTIDES AND USES THEREOF” (The Johns Hopkins University, priority 2021, published 2024)",
  "key": {"[1]": {"test_system": "truncated AIF (tAIF, 57 kDa)", "assay": "Immunoblot of truncated AIF in ISO/Ca2+-treated ES-CMs (chronic CAPN1 inhibition)", "format": "cell-based, mouse", "conditions": "Dsg2^mut/mut ES-CMs, 7 days 50 μM ISO/1 μM Ca2+, calpeptin pretreatment", "method": "(§1) Mouse embryonic stem cells (ESs) were maintained and differentiated, and the absence of mycoplasma contamination was confirmed prior to experimental studies. Briefly, mouse ESs from both WT and Dsg2^mut/mut mice were derived from E3.5 embryos and maintained on gelatin-coated dishes in maintenance medium (Glasgow minimum essential medium supplemented with 10% fetal bovine serum and 3 μM Chir99021 and 1 μM PD98059 or 1000 U/ml ESGRO; Millipore), Glutamax, sodium pyruvate, and MEM non-essential amino acids (Thermo Fisher Scientific). For cardiomyocyte (CM) differentiation, ESs were plated in IMDM/Ham's F12 (Cellgro, at 3:1) supplemented with N2, B27, penicillin/streptomycin, 2 mM GlutaMAX, 0.05% BSA, 5 ng/ml L-ascorbic acid (Sigma-Aldrich), and α-monothioglycerol (MTG; Sigma-Aldrich) at a final density of 100,000 cells/ml to allow spheroid formation. After 48 hours, embryoid bodies were collected and transferred to ultra-low attachment plastic surface and induced for 40 hours with Activin A and Bmp4 (R&D Systems). Cells were then dissociated and plated as monolayers for 48 hours in the presence of 10 μM XAV to allow cardiomyocyte differentiation. The resulting ES-CMs were cultured 45 days before experimental procedures were performed."}, "[2]": {"test_system": "HL-1 cells", "assay": "Cell viability assay (LDH release) in HL-1 cells under Ca2+ overload", "format": "cell-based, mouse", "conditions": "Calcimycin 1 μM in HBS KV medium, dose-dependent response", "method": "Calcium (Ca^2+) Overload Protocol: Rapid and sustained intracellular Ca^2+ overload was obtained by adding the Ca^2+-ionophore, calcimycin (1 μM), to HL-1 cells incubated for 10 min in HBS KV medium (1.26 mM CaCl2, 0.81 mM MgSO4, 0.44 mM KH2PO4, 142 mM KCl, 0.27 mM K2HPO4, 5.55 mM D-glucose, 1 mM Na3VO4, 20 mM Hepes pH 7.4). To monitor intracellular Ca^2+ variations, HL-1 cells were loaded with 5 μM Fluo-4 FF AM (Molecular Probes) in HBS Na (Sigma) for 30 min before the media was replaced with HBS KV. […] Cell Viability Assay: HL-1 plasma membrane integrity was assessed by measuring lactate dehydrogenase (LDH) release in the culture supernatant. An enzymatic assay evaluated LDH activity. Samples of the cell-free culture supernatant were collected at indicated times in Figures/Figure Legends, while cells were lysed in 1% (w/v) Triton X-100 at the end of each experiment to estimate the remaining cellular content of LDH. The LDH activity at each time point was expressed as a percentage of total LDH activity."}, "[3]": {"target": "T1, CAPN1 (Mus musculus, UniProt O35350)", "T1 construct": "endogenous in cells; host or cells: HL-1 cardiomyocytes", "T1 sequence (O35350 1-713)": "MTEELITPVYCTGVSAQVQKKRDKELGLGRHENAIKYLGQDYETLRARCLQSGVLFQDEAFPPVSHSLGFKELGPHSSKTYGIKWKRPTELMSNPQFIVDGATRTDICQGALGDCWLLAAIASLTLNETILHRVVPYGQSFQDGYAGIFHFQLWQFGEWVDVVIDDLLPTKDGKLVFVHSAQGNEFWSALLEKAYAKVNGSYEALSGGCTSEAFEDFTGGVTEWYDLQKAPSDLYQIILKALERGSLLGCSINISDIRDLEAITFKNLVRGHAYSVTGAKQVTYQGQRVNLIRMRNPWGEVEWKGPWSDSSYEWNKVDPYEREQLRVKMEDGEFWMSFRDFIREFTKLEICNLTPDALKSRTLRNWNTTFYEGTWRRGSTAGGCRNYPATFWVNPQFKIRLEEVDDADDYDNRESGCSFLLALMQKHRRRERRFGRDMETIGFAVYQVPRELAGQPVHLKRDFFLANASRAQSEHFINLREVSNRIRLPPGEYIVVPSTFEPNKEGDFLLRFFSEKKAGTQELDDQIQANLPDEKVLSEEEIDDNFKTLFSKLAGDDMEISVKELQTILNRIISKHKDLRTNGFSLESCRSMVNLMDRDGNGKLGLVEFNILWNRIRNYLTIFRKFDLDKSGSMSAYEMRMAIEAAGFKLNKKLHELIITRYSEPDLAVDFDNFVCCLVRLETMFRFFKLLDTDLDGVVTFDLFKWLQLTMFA", "T1 sequence (O88456 1-268 partner)": "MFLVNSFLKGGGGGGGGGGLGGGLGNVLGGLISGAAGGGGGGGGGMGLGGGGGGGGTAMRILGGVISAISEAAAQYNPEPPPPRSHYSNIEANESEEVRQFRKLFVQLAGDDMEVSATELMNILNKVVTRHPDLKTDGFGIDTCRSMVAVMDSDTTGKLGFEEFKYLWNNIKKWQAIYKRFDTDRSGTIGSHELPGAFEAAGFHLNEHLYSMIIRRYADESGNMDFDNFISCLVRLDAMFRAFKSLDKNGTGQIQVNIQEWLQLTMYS", "assay": "Calpain activity assay (Suc-LLVY-AMC cleavage) in HL-1 cells under Ca2+ overload", "format": "cell-based", "conditions": "Calcimycin 1 μM in HBS KV medium, dose-dependent response", "method": "Calcium (Ca^2+) Overload Protocol: Rapid and sustained intracellular Ca^2+ overload was obtained by adding the Ca^2+-ionophore, calcimycin (1 μM), to HL-1 cells incubated for 10 min in HBS KV medium (1.26 mM CaCl2, 0.81 mM MgSO4, 0.44 mM KH2PO4, 142 mM KCl, 0.27 mM K2HPO4, 5.55 mM D-glucose, 1 mM Na3VO4, 20 mM Hepes pH 7.4). To monitor intracellular Ca^2+ variations, HL-1 cells were loaded with 5 μM Fluo-4 FF AM (Molecular Probes) in HBS Na (Sigma) for 30 min before the media was replaced with HBS KV. […] Calpain (CAPN) Activity Assay: […] HL-1 cells were grown in 24-well plates and incubated for 30 min in HBS Na (Sigma) with 25 μM Suc-LLVY-AMC (SEQ ID NO: 81) and 0.01% pluronic F127 (Molecular Probes) before treatment protocols. […] CAPN activity was inhibited via the addition of either calpeptin (Tocris) or PD150606 (Calbiochem) in the incubation medium."}, "[4]": {"test_system": "cleaved (75 kDa) CAPN1", "assay": "Immunoblot of active CAPN1 in ISO/Ca2+-treated ES-CMs (chronic CAPN1 inhibition)", "format": "cell-based, mouse", "conditions": "Dsg2^mut/mut ES-CMs, 7 days 50 μM ISO/1 μM Ca2+, calpeptin pretreatment", "method": "as §1"}},
  "data": [
    {"smiles": "CCCC[C@@H](C=O)NC(=O)[C@H](CC(C)C)NC(=O)OCc1ccccc1", "note": "[calpeptin]", "values": [
      {"measurement": "levels of tAIF (57 kDa)", "setting": "[1]", "result": "significantly lowered"},
      {"measurement": "reduction in cell death (LDH release)", "setting": "[2]", "result": "~40", "unit": "%"},
      {"measurement": "reduction in Ca2+ overload-induced CAPN1 substrate hydrolysis", "setting": "[3]", "result": "~75", "unit": "%"},
      {"measurement": "levels of cleaved (75 kDa) CAPN1", "setting": "[4]", "result": "significantly lowered"}
    ]}
  ]
}
